How the values were obtained:
[1] = system: multiple sclerosis patients; conditions: cited from earlier work; for clinical positive and negative symptoms of MS: low doses, lidocaine by iv infusion; for clinical positive and negative symptoms of MS / treatment of symptoms of MS: Sakurai and Kanazawa 1999
[2] = system: patients suffering from MS; test: Case studies of MS patients treated with Lamotrigine, compared with matching patients; type: in vivo, human
From the text: The average maintenance dose of Lamotrigine in these conditions is 400 mgs per day, but the initial dose or the rate of escalation may cause several side effects.
In the present study, the inventors followed the clinician inventor's clinical practice, which adopted two strategies that had varied from the manufacturer's recommendations. Firstly, a very slow titration process starting with 25 mgs per day increasing the dose gradually (often over several weeks) to avoid adverse events. Secondly, a maintenance dose with mean of 600 mgs per day was applied. Using these two strategies, the inventors observed improvement in the clinical activity of MS and also stabilisation of the disease process. The beneficial effects are illustrated in the following two case studies compared with matching patients who had not been treated with Lamotrigine.
The first treated patient was a person. […] They were referred to the clinician inventor in 1998, and their clinically active disease at that time represented a valid indication for treatment with diseases modifying therapy (β-interferon or Copaxone). However, the therapy could not be started because of financial constraints that were then imposed by their Health Authority. They also complained of sharp pain affecting the legs, which was resistant to several types of analgesia and also resistant to tricyclic antidepressants. Accordingly, treatment was started with Lamotrigine to treat their pain.
The initial dose was 25 mgs per day, which was escalated gradually as outlined above. Their Expanded Disability Status Scale at that time was 2.5. Their painful symptoms improved following Lamotrigine therapy. They also noticed improvement in their other MS-related symptoms, such as muscle spasticity in the legs and daytime fatigue. […] Their EDSS score remained stable at 2.5. Such improvement seemed to be related to Lamotrigine therapy because they had received no immunosuppressive or steroid therapy during the past four years.
A second of Lamotrigine-treated patient was a person, who was diagnosed with relapsing remitting MS five years ago. They also had idiopathic generalised epilepsy since childhood, which was treated with sodium valproate. In the first two years following the diagnosis of MS, they had three clinical relapses. Their seizures also deteriorated and because of this, their anti-epileptic therapy was changed from sodium valproate to Lamotrigine. This drug was introduced at a low dose, and was escalated cautiously as outlined above. Their EDSS score at the beginning of treatment with Lamotrigine was 1.5. […] This improvement seemed to be related to Lamotrigine therapy since they had received no treatment with steroids or immunosuppressive drugs.

[3] = seven MS patients, slow titration from 25 mgs per day, maintenance dose with mean of 600 mgs per day

Q: For `CCN(CC)CC(=O)Nc1c(C)cccc1C` [lidocaine], which “clinical positive and negative symptoms of MS” value [1] is on record?
A: generally improve clinical positive symptoms rather than worsening negative symptoms

Q: Which results are given for `NC(=O)N1c2ccccc2C=Cc2ccccc21` [carbamazepine]?
A: treatment of symptoms of MS [1]: without appropriate success; disability in multiple sclerosis patients ([1]; even at relatively low doses, Ramsaransing et al (2000)): seriously enhance disability

Q: For `Cc1cccc(C)c1OCC(C)N` (stereo not shown) [mexiletine], which “clinical positive and negative symptoms of MS” value [1] is on record?
A: generally improve clinical positive symptoms rather than worsening negative symptoms

Q: Which “treatment of symptoms of MS” value [1] does the source give for `O=C1NC(=O)C(c2ccccc2)(c2ccccc2)N1` [phenytoin] here?
A: without appropriate success

Q: For `Nc1nnc(-c2cccc(Cl)c2Cl)c(N)n1` [Lamotrigine, 3,5-diamino-6-(2,3-dichlorophenyl)-1,2,4-triazine], which “other MS-related symptoms, such as muscle spasticity in the legs and daytime fatigue” value ([2]; Example 1a, person) is on record?
A: improvement

Q: And the clinical relapses ([2]; Example 1a, person, relapsing remitting MS, average of one severe relapse per year before, Lamotrigine from 25 mgs per day escalated gradually)?
A: no clinical relapses since 1998

Q: What about the painful symptoms ([2]; Example 1a, person, sharp pain affecting the legs) of the same molecule?
A: improved

Q: What about the EDSS score ([2]; Example 1a, person, remained stable under Lamotrigine (2.5 at start)) of the same molecule?
A: 2.5

Q: And the clinical relapses ([2]; Example 2a, person, relapsing remitting MS, three relapses in first two years before Lamotrigine)?
A: no clinical relapses

Q: And the EDSS score ([2]; Example 2a, person, remained stable under Lamotrigine (1.5 at start))?
A: 1.5

Q: What about the MS activity ([2]; Examples 3-7, five other patients treated with Lamotrigine) of the same molecule?
A: clinical improvement

Q: What about the “clinical activity of MS” value [2, 3] of the same molecule?
A: improvement

Q: What about the disease process [2, 3] of the same molecule?
A: stabilisation

Q: Which clinical relapses ([2]; Example 1b control, person, active relapsing remitting MS) does the source give for `CN(C)CCC=C1c2ccccc2CCc2ccccc21` [Amitriptyline] here?
A: continued to have clinical relapses on a yearly basis

Q: And the painful symptoms ([2]; Example 1b control, person, active relapsing remitting MS, intractable pain)?
A: improved
